Earlier results on one compound are cited in US20050080252A1, “Process for preparing antiviral nucleoside derivatives” (Roche Palo Alto LLC, priority 2003, published 2005).

For data set [1] the following is noted: unlike ribavirin.

Regarding `NC(=O)c1ncn([C@H]2O[C@@H](CO)[C@H](O)[C@@H]2O)n1` [levovirin, 1-(3S,4R-dihydroxy-5S-hydroxymethyl-tetrahydro-furan-2S-yl)-1H-[1,2,4]triazole-3 carboxylic acid amide], in the data set with Th1 cytokine expression, the “immune response / antiviral Th1 cytokine expression” value is “stimulates immune responses by enhancing antiviral Th1 cytokine expression”. For the same compound, in data set [1], the direct antiviral activity entry is recorded as “does not have direct detectable antiviral activity”.
